According to US7128900B2, “Light-protection agents” (Merck Patent GmbH, priority 2002, dated 2006):
Values joined by “and” are separate entries in the source; they are usually repeats but may differ in a detail not shown here. Equal values may be shown once.

Assay: UV absorption spectrum (UV-VIS) in 2-propanol
Type: physicochemical
Conditions: for UV-vis λmax: several maxima listed; for UV absorption maximum λ / ε at the UV absorption maximum: in 2-propanol
Experimental: The UV-VIS spectrum was measured on a Varian Cary 100 biospectrophotometer fitted with a heated cell holder (concentration=0.001 g/100 ml of 2-propanol; cell thickness d=1 cm; wavelength range: 200 to 800 nm).
The UV-VIS spectrum was measured on a Varian Cary 100 biospectrophotometer fitted with a heated cell holder (concentration=0.001 g/ 100 ml of 2-propanol; cell thickness d=1 cm; wavelength range: 200 to 800 nm).

| UV-vis λmax (2-propanol, 1 mg/100 ml) | UV absorption maximum λ | ε at the UV absorption maximum | Compound | further results |
| --- | --- | --- | --- | --- |
| 228 nm and 277 nm and 328 nm | – | – | O=c1cc(-c2ccc(O)cc2)oc2ccc(O)cc12 [Example 6, 2-(4′-hydroxyphenyl)-6-hydroxy-4-oxo-4H-1-benzopyran] | UV-vis (e) at λmax 228 nm (2-propanol, 1 mg/100 ml, 228 nm): 23068; UV-vis (e) at λmax 277 nm (2-propanol, 1 mg/100 ml, 277 nm): 14805; UV-vis (e) at λmax 328 nm (2-propanol, 1 mg/100 ml, 328 nm): 30971 |
| – | 318 nm | 37185 | COc1ccc(-c2cc(=O)c3ccc(OC4O[C@H](CO)[C@@H](O)[C@H](O)[C@H]4O)cc3o2)cc1 (stereo partly drawn) [Example 4, 4′-methoxy-7-β-glucosidylflavone] | – |
| 281 nm and 324 nm | – | – | COc1cc(-c2cc(=O)c3cc(O)c(O)cc3o2)cc(OC)c1OC [Example 5, 2-(3′,4′,5′-trimethoxyphenyl)-6,7-dihydroxy-4-oxo-4H-1-benzopyran] | UV-vis (e) at λmax 281 nm (2-propanol, 1 mg/100 ml, 281 nm): 8267; UV-vis (e) at λmax 324 nm (2-propanol, 1 mg/100 ml, 324 nm): 16036 |
| – | 322 nm | 24790 | COc1ccc(-c2cc(=O)c3cc(O)ccc3o2)cc1 [Example 1, 4′-methoxy-6-hydroxyflavone] | – |
| – | 329 nm | 27960 | O=c1cc(-c2ccc(O)cc2)oc2cc(O)ccc12 [Example 3, 4′,7-dihydroxyflavone] | – |
